Source: patent US10251943B2, “PLIF multimeric peptides and uses thereof” (Ramot at Tel-Aviv University Ltd., priority 2012, dated 2019)
“Also recorded” adds a separate entry of the source. Bridges are numbered along the chain shown (N, C = ends). Roman numbers before positions name the chains, in order. Where no end group is shown, it is not given here.

Assays:
[1] = test system: human T cells (HDMAR); assay: Binding to HDMAR human T cell line (detected by anti-C24D IgG); assay type: cell-based
[2] = test system: C48 receptor on human T cells; assay: Inhibition of C48 binding to HDMAR human T cells (detected by anti-C48 IgG-FITC); assay type: cell-based; conditions: pre-incubation of HDMAR T cells with different concentrations
[3] = test system: T47D cells; assay: T47D and PBMC co-culture in vitro; assay type: cell-based, human
Procedure: Human ductal breast epithelial tumor cell line (T47D) was maintained in RPMI-1640 medium supplemented with 10% fetal calf serum.
(§1) Buffy coats from blood bank donors were layered onto Lymphoprep solution (Nycomed, Oslo, Norway) and spun at 2000 rpm for 20 minutes. The interface layer was collected, washed twice, counted, and resuspended in PBS; pH 7.4 to the desired cell concentration.
T47D was maintained in RPMI+FCS 10%. 1 day before the start of the experiment, the medium was replaced with RPMI+AB human serum 10%. PBMCs (1×10^6) were added to T47D (0.1×10^6) at a final volume 1 ml into 24-well plates. The cells were treated with C24D (30 μg/ml) at 0, 24 and 48 hours. The cells without treatment were used as a control. Plates were washed, fixed for 1 hour with 4% formaldehyde solution and stained with Giemsa for microscopic evaluation on experimental days 1, 5, and 8.
After five days of primary culture with T47D and C24D, PBMCs (1 million) were added to fresh T47D (0.1 million) at a final volume 1 ml into 24-well plates. The cells were treated with C24D (30 μg/ml) at 0, 24 and 48 hours. After 4 days of culture, the cells were examined. […] The ratio between T47D and PBMCs was 1:10. Two days after incubation the cells were examined as illustrated in FIGS. 20A-B.

[4] = test system: human PBMC activated with OKT3 MoAb; assay: Cell stimulation and cytokine production (ELISA of supernatants); assay type: cell-based; conditions: for Level of INF-γ: vs control cultures; for Level of IL-10: vs control cells
Procedure: Peripheral blood mononuclear cells (PBMC) at 2×10^6 in 1 ml of 5% human serum/RPMI-1640 were cultured in a 10 ml round-bottom tube, treated with C48 (2 μg/ml), C24D (10 μg/ml), or non-treated. Subsequently, these cultures were stimulated with OKT3 MoAb (100 ng/ml) or non-stimulated. Supernatants were collected at 24, and 72 hours for analysis of IL-10 and other cytokines as indicated in each experiment.
The ELISA kits for the human cytokines TNF-α, IL-10 and IFN-γ were purchased from DPC, and R&D Systems, USA. These kits were used to quantify the indicated cytokines production in the supernatants, according to the manufacturer's instructions.
as §1

[5] = test system: MCF-7 human breast cancer cells; assay: MCF-7 tumor development in nude mice transfused with human PBMC; assay type: in vivo, Athymic BALB/c nude mice
Procedure: Athymic BALB/c nude mice were purchased from Harlan Laboratories Ltd. Mice were inoculated subcutaneously (s.c.) with MCF-7 human breast cancer cells (6×10^6), in the presence of an estrogen source (0.72 mg). The slow-release pellets (60-day release) were implanted s.c. into the cervical scapular space.
as §1, with “PBS (pH 7.4)” for “PBS; pH 7.4”, “concentration. Human PBMC (50×10^6/0.5 ml) were injected intravenously after transplantation of MCF-7 tumor cells as described above.” for “concentration.”
In each experiment, mice were divided into groups of five. C24D dissolved in PBS pH 7.2 was injected i.p. to each mouse daily, at an optimal dose of 60 μg/0.2 ml. Control mice received daily injections of PBS.
Tumors were excised, measured, and fixed in phosphate-buffer formalin (pH 7.0) from which paraffin embedded blocks were prepared.
Four-micron tissue sections were cut from paraffin-embedded blocks and mounted on coated super frost plus slides. They were deparaffinized in xylene, and rehydrated with graded alcohols, rinsed in H2O, and then incubated in 3% H2O2 for 10 minutes and washed in H2O.
For antigen unmasking, the sections were heated in 10 mM of sodium citrate buffer (pH 6.0) for 10 minutes in microwaves or pressure chambers, depending on the manufacturer's instructions, and then cooled at room temperature for 20 minutes. Slides were washed in H2O and in PBS buffer for 5 minutes.
Slides were incubated in normal serum for 10 minutes from a kit (Zymed Laboratories, San Francisco, Calif.). For immunohistochemical staining, performed manually, slides were incubated with primary antibodies at previously determined optimal concentrations, for 60 minutes at room temperature, as summarized in Table 4, herein below.
Slides were washed in H2O and in PBS buffer for 5 minutes and further incubated for 10 minutes with a biothylated second antibody (Zymed Laboratories, San Francisco, Calif.), followed by PBS. […]

[6] = test system: MCF-7 human breast cancer cells; assay: MCF-7 and PBMC co-culture in vitro; assay type: cell-based
Procedure: The MCF-7 human breast carcinoma cell line was maintained in monolayer cultures in RPMI-1640 medium supplemented with 10% fetal calf serum. For passages, confluent monolayer cultures were trypsinized with trypsin/EDTA solution (0.25%/0.05%, respectively), washed once, and seeded in culture medium.
as §1
MCF-7 was maintained in RPMI+fetal calf serum (FCS) 10%. 1 day before the experimental start, the medium was replaced with RPMI+human AB serum 10%. PBMC (1×10^6) were added to MCF-7 (0.1×10^6) at a final volume of 1 ml dispensed into 24-well plates. The cells were treated with C24D 30 μg/ml at 0, 24 and 48 hours. The cells without treatment were used as a control. Plates were washed, fixed for 1 hour with 4% formaldehyde solution and stained with Giemsa for microscopic evaluation on experimental days 1, 5, and 8.
PBMC were removed from the following cell cultures: a) non-treated control MCF-7+PBMC, b) control (only PBMC cultured with C24D), and c) C24D-treated MCF-7+PBMC. All were transferred to new untreated MCF-7 cell monolayer cultures.

[7] = test system: pregnancy development; conditions: vaccination of mice prior to mating; cited from earlier work
[8] = test system: human macrophages; assay: Binding to the surface of human macrophages (FITC-labelled antibody detection); assay type: cell-based; conditions: detected by mouse anti-C24D IgG-FITC and rabbit anti-C48 IgG-FITC

Row | Substance | Binding to the surface of human T cells (HDMAR) [1] | Inhibition of the binding of C48 to T cells [2] | T47D tumor cell lysis ([3]; 7 days of incubation with C24D and PBMCs) | Cytotoxicity on secondary T47D culture ([3]; PBMCs from 5-day primary culture added to fresh T47D, C24D 30 μg/ml, 4 days) | Lysis of T47D cancer cells ([3]; T47D and PBMC (1:10) cultured 5 days at 37° C.) | Level of INF-γ in the presence of C48 ([4]; 72 hours, together with C48) | Level of INF-γ ([4]; 72 hours) | Level of IL-10 when added together with C48 ([4]; culture together with C48) | Level of IL-10 [4] | Tumor growth ([5]; Nude mice transfused with human lymphocytes and engrafted with MCF-7, vs PBS) | Mean tumor volume ([5]; after 19 days, daily i.p. 60 μg, nude mice with MCF-7 and human PBMC) | Tumoral necrosis (histochemical analysis) ([5]; tumors removed from treated mice vs control) | MCF-7 cell monolayer lysis (Giemsa staining) ([6]; MCF7 incubated with PBMC for 5 days) | Lysis of MCF-7 cancer cells ([6]; MCF-7 and PBMC (1:10) cultured 8 days at 37° C., C24D 30 μg/ml) | Cytotoxic effect and growth inhibition of MCF-7 cells ([6]; MCF-7 cultured with human PBMC for 5-8 days) | Cytotoxicity of transferred PBMC on secondary untreated MCF-7 culture ([6]; PBMC removed from C24D-treated MCF-7+PBMC cultures) | Pregnancy development [7] | Binding to the surface of human macrophages [8]
1 | C24-48M: monomeric synthetic polypeptide comprising the C48 terminal amino acids (aa) 24-48 (HHLLRPRRRKRPHSIPTPILIFRSP) [reference compound] | does not |  |  |  |  |  |  |  |  |  |  |  |  |  |  |  |  | 
2 | C24D: covalently linked dimer of identical polypeptide chains, each SEQ ID NO: 1 plus N-terminal Cysteine and Glycine; SEQ ID NO: 102 (chain 1 CGHHLLRPRRRKRPHSIPTPILIFRSP; chain 2 CGHHLLRPRRRKRPHSIPTPILIFRSP; disulfide I:1-II:1) | bind similarly to the surface of human T cells; also recorded: binds to the surface of human T cells | inhibits the binding of C48 to T cells | An increase in tumor cell lysis | cytotoxic effect | resulted in lysis of the cancer cells | increased significantly | increased significantly; also recorded: high levels of INF-γ | decreased the high level of IL-10 | did not increase the level of IL-10 | inhibited significantly the tumor growth; also recorded: tumor growth inhibition and cytotoxicity | 42.5±14 mm^3 | Large areas of tumoral necrosis | monolayer lysis | resulted in lysis of the cancer cells | cytotoxic effect and tumor cell growth inhibition | cytotoxic to the tumor cells |  | 
3 | C48: subcloned recombinant C-terminal 48 amino acids of PLIF, its bioactive domain (SEQ ID NO: 100) (FPSPISPSPSCWHHYTTNRPQPQHHLLRPRRRKRPHSIPTPILIFRSP; Placental Immunoregulatory Ferritin (PLIF), C′, derived peptide C48) | bind similarly to the surface of human T cells |  |  |  |  |  | did not affect the INF-γ level; also recorded: no INF-γ |  | high level of IL-10; also recorded: high IL-10 levels |  |  |  |  |  |  |  | prevented pregnancy development | binds to the surface of human macrophages
